Broadly, the MIC is the lowest concentration found to suppress growth. The term solubility denotes the concentration that dissolves in the medium under given conditions. Higher therefore signals a readily soluble substance.

The values below come from US11718633B2, “Indole compounds, process for the preparation and use thereof” (priority 2018, dated 2023).

SMILES strings stand for the structures. ≈ marks a conversion by molar mass, not a printed value. Bounds are passed on as bounds.

One series relates to Mtb. H37Rv. Briefly: Antibacterial susceptibility testing, broth microdilution MIC. Format: cell-based, Mycobacterium tuberculosis. The note with it: M. tuberculosis H37Rv ATCC 27294, 7 days, 37° C., no visible growth; for MIC: Mycobacterium tuberculosis, ATCC 27294 / H37Rv, 168 h, read-out: MIC against mycobacterium tuberculosis Mtb. H37Rv. For orientation: In broth dilution the organism is exposed to a series of concentrations in liquid medium.

Series [1] can be described thus: In vitro solubility in buffer at different pH (HPLC). The note with it: for solubility at 5 min: kinetic from dmso stock.
A short description of a further series: physchem. The note with it: kinetic from dmso stock.
Series [2] concerns drug-sensitive Mycobacterium tuberculosis strains. The conditions noted are these: drug-sensitive M. tuberculosis; cited from earlier work.
The subject of series [3] is TB aerosol lung infection model. The conditions noted are these: in vivo; cited from earlier work.
Where [4] appears, read: pH 1.2, simulated gastric fluid.

On to `C[Si]1(C)CCC(NC(=O)c2cc3c(F)cc(F)cc3[nH]2)CC1` [Compound (i), N-(1,1-dimethylsilinan-4-yl)-4,6-difluoro-1H-indole-2-carboxamide], for which the MIC with Mtb. H37Rv came to 0.03 µg/mL (≈ 0.093 µM). The solubility at 5 min in series [1] (pH 10.2, aqueous buffer) amounted to 9.03 µM (≈ 2.91 µg/mL).

Regarding `C[Si]1(C)CCN(NC(=O)c2cc3ccccc3[nH]2)CC1` [Compound (c), N-(4,4-dimethyl-1,4-azasilinan-1-yl)-1H-indole-2-carboxamide], the MIC in the series with Mtb. H37Rv amounted to 2 µg/mL (≈ 6.96 µM).

For the compound `C[Si]1(C)CCN(NC(=O)c2cc3c(F)cc(F)cc3[nH]2)CC1` [Compound (j), N-(4,4-dimethyl-1,4-azasilinan-1-yl)-4,6-difluoro-1H-indole-2-carboxamide], the MIC with Mtb. H37Rv was found to be 0.125 µg/mL (≈ 0.386 µM). In series [1], the “aqueous solubility at the acidic pH (in words)” value (from here on “aqueous solubility”) was “good aqueous solubility”. Moreover, the solubility at 5 min in series [1] (setting [4]) is 49.7 µM (≈ 16.1 µg/mL); in series [1] (pH 2.2, aqueous buffer), 31.3 µM (≈ 10.1 µg/mL); in series [1] (pH 4.5, aqueous buffer), 1.01 µM (≈ 0.327 µg/mL); in series [1] (pH 7.4, aqueous buffer), 1 µM (≈ 0.323 µg/mL); in series [1] (pH 10.2, aqueous buffer) it was 1.1 µM (≈ 0.356 µg/mL).

In the case of `C[Si]1(C)CCN(C(=O)c2cc3ccccc3[nH]2)CC1` [Compound (d), (4,4-dimethyl-1,4-azasilinan-1-yl)(1H-indol-2-yl)methanone], in the series with Mtb. H37Rv, the MIC is 32 µg/mL (≈ 117 µM).

Turning to `C[Si]1(C)CCN(NC(=O)c2cc3c(Cl)cc(Cl)cc3[nH]2)CC1` [Compound (f), 4,6-dichloro-N-(4,4-dimethyl-1,4-azasilinan-1-yl)-1H-indole-2-carboxamide], the MIC in the series with Mtb. H37Rv was determined as 0.03 µg/mL (≈ 0.0842 µM). Besides, in series [1], the “aqueous solubility” value is given as “good aqueous solubility”. Also, the solubility at 5 min in series [1] (setting [4]) is 40.4 µM (≈ 14.4 µg/mL); in series [1] (pH 2.2, aqueous buffer) it was 26.3 µM (≈ 9.37 µg/mL); in series [1] (pH 4.5, aqueous buffer) it was 2.57 µM (≈ 0.916 µg/mL); in series [1] (pH 7.4, aqueous buffer) it was 2.57 µM (≈ 0.916 µg/mL); in series [1] (pH 10.2, aqueous buffer), 2.7 µM (≈ 0.962 µg/mL).

Take `C[Si]1(C)CCN(C(=O)c2cc3c(F)cc(F)cc3[nH]2)CC1` [Compound (k), (4,6-difluoro-1H-indol-2-yl)(4,4-dimethyl-1,4-azasilinan-1-yl)methanone]: the MIC with Mtb. H37Rv was determined as 32 µg/mL (≈ 104 µM).

For `C[Si]1(C)CCN(NC(=O)c2cc3c(Cl)cc(Cl)cc3[nH]2)CC1.Cl` [Compound (m), 4,6-dichloro-N-(4,4-dimethyl-1,4-azasilinan-1-yl)-1H-indole-2-carboxamide hydrochloride], the “aqueous solubility” value in series [1] is recorded as “good aqueous solubility”. Further, the solubility at 5 min was 38.6 µM in series [1] (setting [4]); 28.4 µM in series [1] (pH 2.2, aqueous buffer); 2.55 µM in series [1] (pH 4.5, aqueous buffer); 2.73 µM in series [1] (pH 7.4, aqueous buffer); 2.46 µM in series [1] (pH 10.2, aqueous buffer).

With `C[Si]1(C)CCN(C(=O)c2cc3c(Cl)cc(Cl)cc3[nH]2)CC1` [Compound (g), (4,6-dichloro-1H-indol-2-yl)(4,4-dimethyl-1,4-azasilinan-1-yl)methanone], the MIC with Mtb. H37Rv stood at 16 µg/mL (≈ 46.9 µM).

For the compound `C[Si]1(C)CCC(NC(=O)c2cc3ccccc3[nH]2)CC1` [Compound (b), N-(1,1-dimethylsilinan-4-yl)-1H-indole-2-carboxamide], the MIC in the series with Mtb. H37Rv worked out at 0.03 µg/mL (≈ 0.105 µM).

Turning to `CC1(C)CCC(NC(=O)c2cc3c(F)cc(F)cc3[nH]2)CC1` [NITD 349, reference compound], the “MIC against mycobacterium tuberculosis Mtb. H37Rv” value in the series on Mtb. H37Rv came out at 0.03 µg/mL (≈ 0.0979 µM). Further, the “Solubility pH 1.2” value in series [1] (buffer pH 1.2) is given as 0.24 μM. Moreover, the “Solubility pH 2.2” value in series [1] (buffer pH 2.2) is 0.29 μM. The “Solubility pH 4.5” value in series [1] (buffer pH 4.5) is listed as 0.15 μM. In addition, in series [1] (buffer pH 7.4), the “Solubility pH 7.4” value worked out at 0.24 μM. In addition, the “Solubility pH 10.2” value in series [1] (buffer pH 10.2) is given as 7.30 μM.

On to `CC1(C)CCC(NC(=O)c2cc3c(Cl)cc(Cl)cc3[nH]2)CC1` [NITD 304, reference compound], for which the “MIC against mycobacterium tuberculosis Mtb. H37Rv” value with Mtb. H37Rv stood at 0.06 µg/mL (≈ 0.177 µM). For the same compound, the “Solubility in DMSO (standard solution)” value in series [1] (DMSO @ 10 μM Concentration) is reported as “Insoluble in DMSO @ 10 μM Concentration”.

For the compound `CC1(C)CCN(NC(=O)c2cc3c(Cl)cc(Cl)cc3[nH]2)CC1` [Compound (h), 4,6-dichloro-N-(4,4-dimethylpiperidin-1-yl)-1H-indole-2-carboxamide], the solubility at 5 min was 41.1 µM (≈ 14 µg/mL) in “physchem” (setting [4]); 30 µM (≈ 10.2 µg/mL) in the series “physchem” (pH 2.2, aqueous buffer); 8.6 µM (≈ 2.93 µg/mL) in the series “physchem” (pH 4.5, aqueous buffer); 6.32 µM (≈ 2.15 µg/mL) in the series “physchem” (pH 7.4, aqueous buffer); 8.67 µM (≈ 2.95 µg/mL) in the series “physchem” (pH 10.2, aqueous buffer).

In the case of `CC1(C)CCN(NC(=O)c2cc3c(F)cc(F)cc3[nH]2)CC1` [Compound (l), N-(4,4-dimethylpiperidin-1-yl)-4,6-difluoro-1H-indole-2-carboxamide], the solubility at 5 min in “physchem” (setting [4]) was 49.6 µM (≈ 15.3 µg/mL); in the series “physchem” (pH 2.2, aqueous buffer), 46.4 µM (≈ 14.3 µg/mL); in the series “physchem” (pH 4.5, aqueous buffer), 17.3 µM (≈ 5.31 µg/mL); in the series “physchem” (pH 7.4, aqueous buffer), 29.4 µM (≈ 9.04 µg/mL); in “physchem” (pH 10.2, aqueous buffer) it was 21.4 µM (≈ 6.57 µg/mL).

Turning to `CC1(C)CCC(NC(=O)c2cc3ccccc3[nH]2)CC1` [Compound (a), N-(4,4-dimethylcyclohexyl)-1H-indole-2-carboxamide], the MIC in the series on Mtb. H37Rv was found to be 0.06 µg/mL (≈ 0.222 µM).

Turning to `CC1(C)CCN(NC(=O)c2cc3c(Cl)cc(Cl)cc3[nH]2)CC1.Cl` [Compound (n), 4,6-dichloro-N-(4,4-dimethylpiperidin-1-yl)-1H-indole-2-carboxamide hydrochloride], the solubility at 5 min was 42.6 µM in the series “physchem” (setting [4]); 26.2 µM in the series “physchem” (pH 2.2, aqueous buffer); 7.24 µM in the series “physchem” (pH 4.5, aqueous buffer); 10.6 µM in “physchem” (pH 7.4, aqueous buffer); 9.89 µM in “physchem” (pH 10.2, aqueous buffer).

Consider `C[Si]1(C)CCC(NC(=O)c2cc3c(Cl)cc(Cl)cc3[nH]2)CC1` [Compound (e), 4,6-dichloro-N-(1,1-dimethylsilinan-4-yl)-1H-indole-2-carboxamide], for which the minimal inhibitory concentration (MIC) with Mtb. H37Rv was found to be 0.03 µg/mL (≈ 0.0844 µM).

Regarding `C[C@@H]1[C@H]2C[C@@H](C[C@H]1NC(=O)c1cc3c(F)cc(F)cc3[nH]1)C2(C)C` [4,6-difluoro-N-((1R,2R,3R,5S)-2,6,6-trimethylbicyclo[3.1.1]heptan-3-yl)-1H-indole-2-carboxamide], in series [2], the MIC was 0.012 µM (≈ 0.00399 µg/mL) and the SI is on record as not below 16000. Further, the “activity in the TB aerosol lung infection model (in words)” value in series [3] was “excellent activity”.
